Our source for the IC50 values is patent publication US4820834A, “Benzodiazepine analogs” (priority 1987, dated 1989).

Where two headings read alike, the source gives them in different places.

What is called IC50 is the concentration needed to halve the response being measured.

In one assay the target is T1, CCK receptor (pancreas) (Rattus norvegicus, UniProt P30551).
T1 construct: The whole pancreas was dissected free of fat tissue and was homogenized; from tissue; host or cells: rat pancreas membranes (Sprague-Dawley)
T1 sequence (P30551 1-444): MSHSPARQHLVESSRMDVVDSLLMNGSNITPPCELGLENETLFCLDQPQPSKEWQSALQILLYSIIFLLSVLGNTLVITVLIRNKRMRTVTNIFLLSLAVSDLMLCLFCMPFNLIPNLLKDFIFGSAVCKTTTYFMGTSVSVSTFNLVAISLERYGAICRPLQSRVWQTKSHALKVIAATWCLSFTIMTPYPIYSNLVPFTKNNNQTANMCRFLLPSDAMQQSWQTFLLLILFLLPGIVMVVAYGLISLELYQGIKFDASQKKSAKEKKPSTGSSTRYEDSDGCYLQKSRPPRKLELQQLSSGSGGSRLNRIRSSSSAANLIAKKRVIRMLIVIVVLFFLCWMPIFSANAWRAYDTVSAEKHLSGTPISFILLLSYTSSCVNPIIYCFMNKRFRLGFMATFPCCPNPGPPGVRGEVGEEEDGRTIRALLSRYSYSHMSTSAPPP
Description: CCK Receptor Binding (Pancreas): inhibition of ^125 I-CCK-33 binding. The following applies: rat pancreas membranes, ^125 I-CCK-33, 37° C., 30 minutes. More on the design: species or system Male Sprague-Dawley rats. In outline:
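Bound ^125I-CCK-33 was counted in pellets after a 30 min, 37° C incubation followed by centrifugation. Membranes came from male Sprague-Dawley rat pancreas, assayed in Tris HCl pH 7.7 containing DTT, bacitracin, PMSF and o-phenanthroline. For Scatchard analysis, tracer was diluted with rising unlabelled CCK-33.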

For assay [1], the target named is T2, CCK receptor (brain, cerebral cortex) (Cavia porcellus, UniProt H0VZC5).
T2 construct: Cerebral cortex was dissected and used as a receptor source; from tissue; host or cells: guinea pig cerebral cortex membranes (male Hartley)
T2 sequence (H0VZC5 1-426): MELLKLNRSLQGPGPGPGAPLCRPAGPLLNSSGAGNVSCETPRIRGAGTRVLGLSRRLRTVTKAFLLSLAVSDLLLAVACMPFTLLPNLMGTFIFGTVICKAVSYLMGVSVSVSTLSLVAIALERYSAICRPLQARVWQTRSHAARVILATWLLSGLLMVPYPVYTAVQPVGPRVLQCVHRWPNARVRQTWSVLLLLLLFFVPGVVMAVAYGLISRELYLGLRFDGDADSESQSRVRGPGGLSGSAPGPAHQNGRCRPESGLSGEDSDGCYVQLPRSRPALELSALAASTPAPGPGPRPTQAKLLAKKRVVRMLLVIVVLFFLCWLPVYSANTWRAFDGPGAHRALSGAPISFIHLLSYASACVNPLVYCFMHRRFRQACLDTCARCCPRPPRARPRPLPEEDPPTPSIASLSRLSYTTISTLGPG
Description: biochemical. In kind it is binding, Male Hartley guinea pigs. The following applies: guinea pig cerebral cortex, ^125 I-CCK-33, 25° C., 2 hours. In outline: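 Binding of [radiolabeled] CCK-33 measured by gamma counting of centrifuged pellets after 2 h at 25°C. Membranes came from guinea pig brain cortex, suspended in 10 mM HEPES, 5 mM MgCl2, 1 mM EGTA, 0.25 mg/ml bacitracin, 0.4% BSA.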

Assay [2] deals with T3, Gastrin receptor (gastric glands) (Cavia porcellus, UniProt H0VZC5).
T3 construct: The washed guinea pig gastric glands prepared as above were resuspended; from tissue; host or cells: guinea pig gastric mucosal glands (male Hartley)
T3 sequence (H0VZC5 1-426): T2 sequence (H0VZC5 1-426)
Briefly: Gastrin Receptor Binding in Guinea Pig Gastric Glands. More on the design: species or system guinea pig (male Hartley). The following applies: 25° C., 30 minutes.

Where [3] appears, read: read-out: IC50 ^125 I-CCK Brain.
Where [4] appears, read: ^125 I-gastrin, read-out: IC50 ^125 I-Gastrin Gastric Glands.
[5] abbreviates: IC50 ^125 I-Gastrin Gastric Glands.
Where [6] appears, read: read-out: IC50 ^125 I-CCK Pancreas.

Consider `CCOC(=O)CN1C(=O)C(NC(=O)Cc2ccc(Cl)cc2)N=C(c2ccccc2)c2ccccc21` (stereo not drawn) [Example 239, 3-(((4-Chlorophenyl)acetyl)amino)-2,3-dihydro-2-oxo-5-phenyl-1H-1,4-benzodiazepine-1-acetic acid ethyl ester], for which the 50% inhibitory concentration (IC50) on CCK receptor (pancreas) (IC50 ^125 I-CCK Pancreas) was 1700 nM; in assay [1] (setting [3]), 38 nM; in assay [2] (setting [4]) it was 4.5 nM.
The corresponding values for `O=C(Cc1ccc(Cl)cc1)NC1N=C(c2ccccc2)c2ccccc2NC1=O` (stereo not drawn) [Example 240, 4-Chloro-N-(2,3-dihydro-2-oxo-5-phenyl-1,4-benzodiazepin-3-yl)-benzeneacetamide] are 1300 nM, 2900 nM and 7000 nM.
As to `CCOC(=O)C(C)N1C(=O)C(NC(=O)OCc2ccccc2)N=C(c2ccccc2)c2ccccc21` (stereo not drawn) [Example 241, 2,3-Dihydro-alpha-methyl-2-oxo-5-phenyl-3-((phenylmethoxy)carbonyl)amino-1H-1,4-benzodiazepine-1-acetic acid ethyl ester], the IC50 on CCK receptor (pancreas) (IC50 ^125 I-CCK Pancreas) turned out to be 930 nM; in assay [1] (setting [3]), 1400 nM; in assay [2] (setting [4]), 950 nM.
The matching figures for `CCOC(=O)C(C)N1C(=O)C(NC(=O)OCc2ccccc2)N=C(c2ccccc2)c2ccccc21` (stereo not drawn) [Example 242]: 900 nM, 2300 nM and 870 nM.
For the molecule `CC(C(=O)O)N1C(=O)C(NC(=O)OCc2ccccc2)N=C(c2ccccc2)c2ccccc21` (stereo not drawn) [Example 243, 2,3-Dihydro-alpha-methyl-2-oxo-5-phenyl-3-((phenylmethoxy)carbonyl)amino-1H-1,4-benzodiazepine-1-acetic acid], the results for the IC50 (at CCK receptor (pancreas) (IC50 ^125 I-CCK Pancreas); in assay [1] (setting [3]); in assay [2] (setting [4])) were 680 nM, 2800 nM and 3600 nM, respectively.
The matching figures for `CCN(CC)C(=O)C(C)N1C(=O)C(NC(=O)OCc2ccccc2)N=C(c2ccccc2)c2ccccc21` (stereo not drawn) [Example 244, (1-(2-(Diethylamino)-1-methyl-2-oxoethyl)-2,3-dihydro-2-oxo-5-phenyl-1H-1,4-benzodiazepin-3-yl)-carbamic acid phenylmethyl ester]: 950 nM, 740 nM and 500 nM.
Consider `CN1C(=O)C(NC(=O)Oc2ccc([N+](=O)[O-])cc2)N=C(c2ccccc2F)c2ccccc21` (stereo not drawn) [Example 245, (5-(2-Fluorophenyl)-2,3-dihydro-1-methyl-2-oxo-1H-1,4-benzodiazepin-3-yl)-carbamic acid-4-nitrophenyl ester], for which the IC50 came out at 7200 nM on CCK receptor (pancreas) (IC50 ^125 I-CCK Pancreas), 92000 nM in assay [1] (IC50 ^125 I-CCK Brain) and 12000 nM in assay [2] (setting [5]).
Consider `COc1cccc(NC(=O)NC2N=C(c3ccccc3F)c3ccccc3N(C)C2=O)c1` (stereo not drawn) [Example 246, N-(5-(2-Fluorophenyl)-2,3-dihydro-1-methyl-2-oxo-1H-1,4-benzodiazepin-3-yl)-N'-(3-methoxyphenyl)-urea], for which the concentration for half-maximal inhibition (IC50) at CCK receptor (pancreas) (IC50 ^125 I-CCK Pancreas) stood at 1.9 nM; in assay [1] (setting [3]), 2 nM; in assay [2] (setting [4]) it was 2.4 nM.
With `COc1cccc(NC(=O)NC2N=C(c3ccccc3)c3ccccc3N(C)C2=O)c1` (stereo not drawn) [Example 247, N-(2,3-Dihydro-1-methyl-2-oxo-5-phenyl-1H-1,4-benzodiazepin-3-yl)-N'-(3-methoxyphenyl)-urea], the values for the IC50 (on CCK receptor (pancreas) (setting [6]); in assay [1] (IC50 ^125 I-CCK Brain); in assay [2] (setting [4])) were 6.2 nM, 3 nM and 1.6 nM, respectively.
`Cc1ccc(S(=O)(=O)NC(=O)NC2N=C(c3ccccc3)c3ccccc3N(C)C2=O)cc1` (stereo not drawn) [Example 248, N-(((2,3-Dihydro-1-methyl-2-oxo-5-phenyl-1H-1,4-benzodiazepin-3-yl)amino)carbonyl)-4-methylbenzenesulfonamide]: the half-inhibitory concentration (IC50) turned out to be 20000 nM at CCK receptor (pancreas) (IC50 ^125 I-CCK Pancreas), 5300 nM in assay [1] (setting [3]) and 2200 nM in assay [2] (setting [4]).
Consider `CN1C(=O)C(NC(=O)Nc2ccccc2)N=C(c2ccccc2)c2ccccc21` (stereo not drawn) [Example 250, N-(2,3-Dihydro-1-methyl-2-oxo-5-phenyl-1H-1,4-benzodiazepin-3-yl)-N'-phenylurea], for which the IC50 on CCK receptor (pancreas) (setting [6]) amounted to 8.3 nM; in assay [1] (setting [3]) it was 32 nM; in assay [2] (setting [4]), 9 nM.
The corresponding values for `CN1C(=O)C(NC(=O)NCc2ccccc2)N=C(c2ccccc2)c2ccccc21` (stereo not drawn) [Example 251, N-(2,3-Dihydro-1-methyl-2-oxo-5-phenyl-1H-1,4-benzodiazepin-3-yl)-N'-phenylmethylurea] are 490 nM, 860 nM and 420 nM.
Take `Cc1ccc(NC(=O)NC2N=C(c3ccccc3)c3ccccc3N(C)C2=O)cc1` (stereo not drawn) [Example 252, N-(2,3-Dihydro-1-methyl-2-oxo-5-phenyl-1H-1,4-benzodiazepin-3-yl)-N'-(4-methylphenyl)-urea]: the half-inhibitory concentration (IC50) was determined as 57 nM at CCK receptor (pancreas) (setting [6]), 6 nM in assay [1] (IC50 ^125 I-CCK Brain) and 3.5 nM in assay [2] (setting [5]).
Take `COc1ccc(NC(=O)NC2N=C(c3ccccc3)c3ccccc3N(C)C2=O)cc1` (stereo not drawn) [Example 253, N-(2,3-Dihydro-1-methyl-2-oxo-5-phenyl-1H-1,4-benzodiazepin-3-yl)-N'-(4-methoxvphenyl)-urea]: the half-maximal inhibitory concentration (IC50) at CCK receptor (pancreas) (IC50 ^125 I-CCK Pancreas) was 160 nM; in assay [1] (IC50 ^125 I-CCK Brain) it was 20 nM; in assay [2] (setting [5]), 45 nM.
`CN1C(=O)C(NC(=O)Nc2ccccc2Cl)N=C(c2ccccc2)c2ccccc21` (stereo not drawn) [Example 254, N-(2-Chlorophenyl)-N'-(2,3-dihydro-1-methyl-2-oxo-5-phenyl-1H-1,4-benzodiazepin-3-yl)-urea]: the IC50 is 0.9 nM at CCK receptor (pancreas) (IC50 ^125 I-CCK Pancreas), 320 nM in assay [1] (setting [3]) and 110 nM in assay [2] (setting [4]).
In the case of `CN1C(=O)C(NC(=O)Nc2ccc(Br)cc2)N=C(c2ccccc2)c2ccccc21` (stereo not drawn) [Example 255], the concentration for half-maximal inhibition (IC50) worked out at 130 nM on CCK receptor (pancreas) (setting [6]), 48 nM in assay [1] (IC50 ^125 I-CCK Brain) and 32 nM in assay [2] (setting [5]).
Take `CN1C(=O)C(NC(=O)Nc2ccc([N+](=O)[O-])cc2)N=C(c2ccccc2)c2ccccc21` (stereo not drawn) [Example 256, N-(4-Nitrophenyl)-N'-(2,3-dihydro-1-methyl-2-oxo-5-phenyl-1H-1,4-benzodiazepin-3-yl)-urea]: the IC50 was determined as 210 nM at CCK receptor (pancreas) (setting [6]), 46 nM in assay [1] (setting [3]) and 9.8 nM in assay [2] (setting [4]).
Regarding `CN1C(=O)C(NC(=O)Nc2ccc(Cl)c(Cl)c2)N=C(c2ccccc2)c2ccccc21` (stereo not drawn) [Example 257, N-(3,4-Dichlorophenyl)-N'-(2,3-dihydro-1-methyl-2-oxo-5-phenyl-1H-1,4-benzodiazepin-3-yl)-urea], the IC50 on CCK receptor (pancreas) (setting [6]) is 26 nM; in assay [1] (IC50 ^125 I-CCK Brain) it was 67 nM; in assay [2] (setting [5]), 48 nM.
The matching figures for `CN1C(=O)C(NC(=O)Nc2ccc(Cl)cc2Cl)N=C(c2ccccc2)c2ccccc21` (stereo not drawn) [Example 258, N-(2,4-Dichlorophenyl)-N'-(2,3-dihydro-1-methyl-2-oxo-5-phenyl-1H-1,4-benzodiazepin-3-yl)-urea]: 3 nM, 220 nM and 60 nM.
With `CN1C(=O)C(NC(=O)Nc2ccc(F)cc2)N=C(c2ccccc2)c2ccccc21` (stereo not drawn) [Example 259, N-(2,3-Dihydro-1-methyl-2-oxo-5-phenyl-1H-1,4-benzodiazepin-3-yl)-N'-(4-fluorophenyl)-urea], the half-maximal inhibitory concentration (IC50) was 46 nM at CCK receptor (pancreas) (setting [6]), 66 nM in assay [1] (setting [3]) and 14 nM in assay [2] (setting [4]).
Regarding `CN1C(=O)C(NC(=O)NC(C)(C)C)N=C(c2ccccc2)c2ccccc21` (stereo not drawn) [Example 260, N-(2,3-Dihydro-1-methyl-2-oxo-5-phenyl-1H-1,4-benzodiazepin-3-yl)-N'-(1,1-dimethylethyl)-urea], the IC50 on CCK receptor (pancreas) (setting [6]) is 6800 nM; in assay [1] (IC50 ^125 I-CCK Brain), 38000 nM; in assay [2] (setting [5]), > 1000 nM.
